{"source": "patent US6706699B2", "about": "“Quinolines and uses thereof” (Ariad Pharmaceuticals, Inc., priority 2001, dated 2004)", "experiment": "Hydroxyapatite assay (hydroxyapatite adsorption chromatography, bone-targeting potential)", "assay_type": "physicochemical", "settings": "corrected retention K=(retention time−void time)/void on TSK-Gel HA 1000 column; linear gradient 10 mM to 500 mM sodium phosphate, 0.15 N NaCl, pH 6.8", "method": "Hydroxyapatite is the principal mineral component of bone. Hydroxyapatite adsorption chromatography is used as an assay to evaluate the bone-targeting potential of both individual bone-targeting moieties (“monomers”) and of pharmaceuticals incorporating bone-targeting groups.\nMethod: The rentention time of a test compound is measured using a linear gradient from 10 mM sodium phosphate, 0.15 N NaCl, pH=6.8 to 500 mM sodium phosphate, 0.15 N NaCl, […] on a TSK-Gel HA 1000 high pressure liquid chromatography column (7.5 mm×75 mm). […] This K value is corrected using two reference compounds to correct from inter-column and inter-system variation to obtain a K′ value.\nReference Compounds: K′ values were determined for known bone targeted compounds, the bisphosphonate, alendronate and tetracycline."}
{"compound": "NCCCC(O)(P(=O)(O)O)P(=O)(O)O", "note": "[Alendronate, alendronate]", "values": [{"measurement": "K′ value", "result": 3.7}]}
